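Each compound was tested at five concentrations against cells in 96-well plates for 48 hours. GI50: concentration for 50% inhibition of growth. TGI: concentration producing complete growth inhibition.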
Key:
Experiment in all cases: NCI anticancer screen, dose series, 48 h
MALME-3M melanoma = system: MALME-3M melanoma
OVCAR-3 ovarian = system: OVCAR-3 ovarian
EKVX NSCLC = system: EKVX NSCLC
LOX IMVI melanoma = system: LOX IMVI melanoma
SK-MEL-28 melanoma = system: SK-MEL-28 melanoma
HOP-92 NSCLC = system: HOP-92 NSCLC
RXF 393 renal = system: RXF 393 renal
NCI-H460 lung = system: NCI-H460 lung
CCRF-CEM leukemia = system: CCRF-CEM leukemia
NCI-H226 lung = system: NCI-H226 lung
HOP-62 NSCLC = system: HOP-62 NSCLC
NCI/ADR-RES ovarian = system: NCI/ADR-RES ovarian
A549 NSCLC = system: A549 NSCLC
SF-539 CNS = system: SF-539 CNS
SW-620 colon = system: SW-620 colon
SK-OV-3 ovarian = system: SK-OV-3 ovarian
BT-549 breast = system: BT-549 breast
HS 578T breast = system: HS 578T breast
OVCAR-8 ovarian = system: OVCAR-8 ovarian
UACC-257 melanoma = system: UACC-257 melanoma
NCI-H23 lung = system: NCI-H23 lung
TK-10 renal = system: TK-10 renal
MCF7 breast = system: MCF7 breast
SNB-75 CNS = system: SNB-75 CNS
RPMI-8226 leukemia = system: RPMI-8226 leukemia
MDA-MB-435 = system: MDA-MB-435
DU-145 prostate = system: DU-145 prostate
NCI-H522 lung = system: NCI-H522 lung
SK-MEL-5 melanoma = system: SK-MEL-5 melanoma
A498 renal = system: A498 renal
HCC-2998 colon = system: HCC-2998 colon
COLO 205 colon = system: COLO 205 colon
OVCAR-5 ovarian = system: OVCAR-5 ovarian
UACC-62 melanoma = system: UACC-62 melanoma
UO-31 renal = system: UO-31 renal
PC-3 prostate = system: PC-3 prostate
U251 CNS = system: U251 CNS
CAKI-1 renal = system: CAKI-1 renal
SK-MEL-2 melanoma = system: SK-MEL-2 melanoma
SF-268 CNS = system: SF-268 CNS
MOLT-4 leukemia = system: MOLT-4 leukemia
HCT-15 colon = system: HCT-15 colon
T-47D breast = system: T-47D breast
SF-295 CNS = system: SF-295 CNS
OVCAR-4 ovarian = system: OVCAR-4 ovarian
SN12C renal = system: SN12C renal
HCT-116 colon = system: HCT-116 colon
MDA-MB-231 breast = system: MDA-MB-231 breast
ACHN renal = system: ACHN renal
IGROV1 ovarian = system: IGROV1 ovarian
KM12 colon = system: KM12 colon
SNB-19 CNS = system: SNB-19 CNS
M14 melanoma = system: M14 melanoma
786-0 renal = system: 786-0 renal
K-562 leukemia = system: K-562 leukemia
HT29 colon = system: HT29 colon
HL-60(TB) leukemia = system: HL-60(TB) leukemia

SMILES: C=C(C)[C@@H]1CC[C@]2(COC(C)=O)CC[C@]3(C)[C@H](CC[C@@H]4[C@@]5(C)CCCN(C(C)=O)C(C)(C)[C@@H]5CC[C@]43C)[C@@H]12
- GI50 (MALME-3M melanoma): 1.57 µM
- TGI (MALME-3M melanoma): 3.05 µM
- GI50 (OVCAR-3 ovarian): 1.93 µM
- TGI (OVCAR-3 ovarian): 3.75 µM
- GI50 (EKVX NSCLC): 1.58 µM
- TGI (EKVX NSCLC): 3.2 µM
- GI50 (LOX IMVI melanoma): 1.45 µM
- TGI (LOX IMVI melanoma): 2.76 µM
- GI50 (SK-MEL-28 melanoma): 1.82 µM
- TGI (SK-MEL-28 melanoma): 3.33 µM
- GI50 (HOP-92 NSCLC): 1.31 µM
- TGI (HOP-92 NSCLC): 2.7 µM
- GI50 (RXF 393 renal): 1.59 µM
- TGI (RXF 393 renal): 3.02 µM
- GI50 (NCI-H460 lung): 1.9 µM
- TGI (NCI-H460 lung): 3.72 µM
- GI50 (CCRF-CEM leukemia): 1.87 µM
- TGI (CCRF-CEM leukemia): 4.95 µM
- GI50 (NCI-H226 lung): 2.2 µM
- TGI (NCI-H226 lung): 5.04 µM
- GI50 (HOP-62 NSCLC): 1.69 µM
- TGI (HOP-62 NSCLC): 3.16 µM
- GI50 (NCI/ADR-RES ovarian): 1.89 µM
- TGI (NCI/ADR-RES ovarian): 3.68 µM
- GI50 (A549 NSCLC): 1.69 µM
- TGI (A549 NSCLC): 3.23 µM
- GI50 (SF-539 CNS): 1.67 µM
- TGI (SF-539 CNS): 3.06 µM
- GI50 (SW-620 colon): 1.75 µM
- TGI (SW-620 colon): 3.47 µM
- GI50 (SK-OV-3 ovarian): 1.97 µM
- TGI (SK-OV-3 ovarian): 4.19 µM
- GI50 (BT-549 breast): 2.41 µM
- TGI (BT-549 breast): 6.41 µM
- GI50 (HS 578T breast): 1.85 µM
- TGI (HS 578T breast): 4.05 µM
- GI50 (OVCAR-8 ovarian): 1.84 µM
- TGI (OVCAR-8 ovarian): 3.42 µM
- GI50 (UACC-257 melanoma): 1.74 µM
- TGI (UACC-257 melanoma): 3.31 µM
- GI50 (NCI-H23 lung): 1.89 µM
- TGI (NCI-H23 lung): 3.53 µM
- GI50 (TK-10 renal): 1.71 µM
- TGI (TK-10 renal): 3.18 µM
- GI50 (MCF7 breast): 1.45 µM
- TGI (MCF7 breast): 3.13 µM
- GI50 (SNB-75 CNS): 1.48 µM
- TGI (SNB-75 CNS): 2.88 µM
- GI50 (RPMI-8226 leukemia): 1.98 µM
- TGI (RPMI-8226 leukemia): 4.19 µM
- GI50 (MDA-MB-435): 1.48 µM
- TGI (MDA-MB-435): 2.85 µM
- GI50 (DU-145 prostate): 1.75 µM
- TGI (DU-145 prostate): 3.29 µM
- GI50 (NCI-H522 lung): 1.65 µM
- TGI (NCI-H522 lung): 3.24 µM
- GI50 (SK-MEL-5 melanoma): 1.78 µM
- TGI (SK-MEL-5 melanoma): 3.19 µM
- GI50 (A498 renal): 9.84 µM
- TGI (A498 renal): 23.4 µM
- GI50 (HCC-2998 colon): 1.67 µM
- TGI (HCC-2998 colon): 3.16 µM
- GI50 (COLO 205 colon): 1.19 µM
- TGI (COLO 205 colon): 2.55 µM
- GI50 (OVCAR-5 ovarian): 1.66 µM
- TGI (OVCAR-5 ovarian): 3.19 µM
- GI50 (UACC-62 melanoma): 1.79 µM
- TGI (UACC-62 melanoma): 3.23 µM
- GI50 (UO-31 renal): 1.38 µM
- TGI (UO-31 renal): 2.68 µM
- GI50 (PC-3 prostate): 1.58 µM
- TGI (PC-3 prostate): 3.23 µM
- GI50 (U251 CNS): 1.69 µM
- TGI (U251 CNS): 3.15 µM
- GI50 (CAKI-1 renal): 1.58 µM
- TGI (CAKI-1 renal): 2.96 µM
- GI50 (SK-MEL-2 melanoma): 1.88 µM
- TGI (SK-MEL-2 melanoma): 3.54 µM
- GI50 (SF-268 CNS): 3.37 µM
- TGI (SF-268 CNS): 13.5 µM
- GI50 (MOLT-4 leukemia): 1.84 µM
- TGI (MOLT-4 leukemia): 4.2 µM
- GI50 (HCT-15 colon): 1.65 µM
- TGI (HCT-15 colon): 3.05 µM
- GI50 (T-47D breast): 1.63 µM
- TGI (T-47D breast): 3.22 µM
- GI50 (SF-295 CNS): 1.69 µM
- TGI (SF-295 CNS): 3.12 µM
- GI50 (OVCAR-4 ovarian): 1.57 µM
- TGI (OVCAR-4 ovarian): 3.13 µM
- GI50 (SN12C renal): 1.75 µM
- TGI (SN12C renal): 3.33 µM
- GI50 (HCT-116 colon): 1.77 µM
- TGI (HCT-116 colon): 3.31 µM
- GI50 (MDA-MB-231 breast): 1.75 µM
- TGI (MDA-MB-231 breast): 3.46 µM
- GI50 (ACHN renal): 1.7 µM
- TGI (ACHN renal): 3.07 µM
- GI50 (IGROV1 ovarian): 1.81 µM
- TGI (IGROV1 ovarian): 3.37 µM
- GI50 (KM12 colon): 1.83 µM
- TGI (KM12 colon): 3.42 µM
- GI50 (SNB-19 CNS): 1.81 µM
- TGI (SNB-19 CNS): 3.27 µM
- GI50 (M14 melanoma): 1.9 µM
- TGI (M14 melanoma): 3.92 µM
- GI50 (786-0 renal): 1.75 µM
- TGI (786-0 renal): 3.22 µM
- GI50 (K-562 leukemia): 1.58 µM
- TGI (K-562 leukemia): 4.14 µM
- GI50 (HT29 colon): 1.52 µM
- TGI (HT29 colon): 2.95 µM
- GI50 (HL-60(TB) leukemia): 1.9 µM
- TGI (HL-60(TB) leukemia): 3.82 µM
